# PMC12588083, “Validated antimalarial drug target discovery using genome-scale metabolic modeling” (Antimicrobial Agents and Chemotherapy, 2025)
# How the values were obtained:
# [1] = target: recombinant PfUCK (P. falciparum UMP-CMP kinase, PfUCK-Δ23) (Plasmodium falciparum, UniProt Q8I231); test: Inhibition constant (Ki) determination, coupled PK/LDH NADH assay, recombinant PfUCK; assay type: biochemical; details: for Ki—PfUCK: Table 4, benzoylacetonitrile derivatives, 1 mM CMP, competitive equation
# Chain of recombinant PfUCK (P. falciparum UMP-CMP kinase, PfUCK-Δ23) (Q8I231 entry or part of it, stated change not applied): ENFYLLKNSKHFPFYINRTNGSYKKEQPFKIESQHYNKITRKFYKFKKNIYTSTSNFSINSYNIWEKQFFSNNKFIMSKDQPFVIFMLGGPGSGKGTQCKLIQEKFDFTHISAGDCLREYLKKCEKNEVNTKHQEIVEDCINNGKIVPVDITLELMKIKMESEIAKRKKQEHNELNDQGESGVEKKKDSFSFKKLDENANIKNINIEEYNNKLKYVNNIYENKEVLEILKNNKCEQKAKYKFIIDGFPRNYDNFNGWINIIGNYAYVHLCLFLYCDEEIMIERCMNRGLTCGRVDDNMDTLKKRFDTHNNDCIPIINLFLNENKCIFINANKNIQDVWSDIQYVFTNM
# Protocol: The hydrophobic core at the protein’s N-terminus may cause poor expression and low solubility in E. coli. Therefore, a truncated gene was created where the ORF began at amino acid residues 24–371, encoding a 348 amino acid protein. […] Briefly, protein expression was induced with isopropyl-D-thiogalactoside, incubated at 16°C with shaking at 200 RPM for 20 hours, and the cell pellet resuspended in binding buffer (50 mM Tris [pH 7.6], 300 mM NaCl, 20 mM imidazole, 5% glycerol, and 0.075% β-mercaptoethanol), with cell disruption using an Avestin C3 Cell Disrupter. Cell debris was removed, and the UCK was purified by Ni-NTA affinity purification. The protein was eluted from the column using a linear gradient of imidazole ([…]) in elution buffer (50 mM Tris [pH 7.6], 300 mM NaCl, 5% glycerol, and 0.075% β-mercaptoethanol). […] The concentrated protein was then stored at −70°C in a storage buffer (25 mM Tris-HCl, 50 mM KCl, and 20% glycerol; pH 7.0).
# The final concentration of dimethyl sulfoxide (Merck, Catalog number 472301) in the assay reaction was maintained at 1%.
# [2] = test system: P. falciparum 3D7; test: Antiplasmodial activity (IC50), SYBR Green fluorescence, 48 hours; assay type: cell-based, Plasmodium falciparum
# Protocol: P. falciparum 3D7 parasites underwent two synchronization cycles with D-sorbitol initiating the inhibitor testing. Parasitemia and hematocrit were adjusted to 0.5% and 3%, respectively. Synchronized ring parasites were cultured in 96-well plates in complete RPMI medium with varying inhibitor concentrations. Inhibitor stock solutions, mostly at 100 mM, were prepared in DMSO. […] Triplicate wells were prepared for each compound. Negative controls included wells with uninfected red cells (3% hematocrit) in complete RPMI medium.
# Culture plates were incubated in a chamber with controlled gas conditions at 37°C. After 48 hours, parasites were quantified using a fluorescence-based assay with SYBR Green dye as previously described ([51]). Lysis buffer containing SYBR Green was added to each well, and plates were incubated at room temperature for 45 minutes and protected from the light. Fluorescence was measured using a microplate reader (POLARstar OPTIMA, BMG Labtech) with excitation at 485 nm and detection at 520 nm. Background fluorescence of uninfected red cells was subtracted, and dose-response curves were plotted against inhibitor concentration. IC50 values were determined using nonlinear regression curve fitting in GraphPad Prism software.
# [3] = test system: synchronised Plasmodium falciparum 3D7 cultures; test: In vitro flux measurements of glucose and amino acids in spent media; assay type: cell-based; details: ± SD, positive = into infected red blood cell, negative = efflux into media; for flux 6 - 18 hps: early to mid-ring stage; for flux 42 - 48 hps: late schizont stage; for flux 30 - 36 hps: late trophozoite stage
# Protocol: Cultures were synchronized with 5% sorbitol ([36]). Synchronized cultures with a total volume of 18 mL at 1% parasitemia and 5% hematocrit were placed in nonvented 75 cm^2 tissue culture flasks (Nunclon). Red blood cells at 5% hematocrit were used as control. One milliliter of culture was collected at time 0 and every 6 hours until 48 hours post synchronization. The collected sample was placed in a 1.5 mL microcentrifuge tube and centrifuged at 3,000 RPM for 2 minutes. The spent media were collected and stored at −80°C prior to analysis. Three biological replicates were analyzed.
# A glucose assay on the spent media was performed using a glucose oxidase-peroxidase format assay kit (Megazyme). Amino acid concentrations in the spent media were determined using an Ultimate 3000 High-Performance Liquid Chromatography system (Dionex, UK). A ramp gradient reverse-phase chromatography was done with an Acclaim 120 C18 (Dionex, UK) 100 × 2.1 mm column (3 µm particle size, 120 Å pore size) stationary phase. Eluent A (10 mM Na2HPO4, 10 mM Na2HB4O7·10 H2O, 0.5 mM NaN3, pH 8.2) and eluent B (45% methanol [vol/vol] 45% acetonitrile [vol/vol] in water) constituted the mobile phase (Table S1).
# Samples were derivatized manually within 10 minutes prior to chromatography. The derivatization procedure was done in a 1.5 mL microcentrifuge tube at room temperature by adding the following reagents in this particular order:
# Spent media for both infected and uninfected (control) samples were assayed for glucose and amino acid concentrations as detailed above. The net metabolite flux from time 0 ( t0 ) to time n ( tn ) was calculated using the formula:
# fluxt0-tn=vt0×∆Ci-∆Cu/gDWt0×∆t
# The parasite mass gDWt0 was determined using the calculated number of parasites based on the parasitemia, hematocrit, and the volume at t0 :
# In this case, it was assumed for simplicity that each infected RBC contained only one parasite. […] Flux calculations were done to represent the three main blood stage forms: the change in concentration from t6 to t18 was used to calculate the early to mid-ring stage flux, from t30 to t36 for the late trophozoite, and from t42 to t48 for the late schizont stage. […] A positive flux represents the entry of metabolites into the model, while a negative flux represents the movement of metabolites into the external environment.
# Supplementary Table 5 Experimental glucose and amino acid flux measurements. […] A positive flux indicates movement of the metabolite into the infected red blood cell while a negative flux indicates efflux of the metabolite into the media.
# [4] = Plasmodium falciparum, 3D7, 48 h, Supplementary Table 7, benzoylacetonitrile derivatives
# [5] = Supplementary Table 7, benzoylacetonitrile derivatives
SMILES,Ki—PfUCK [1],flux 6 - 18 hps [3] [mmol/gDW/hr],flux 42 - 48 hps [3] [mmol/gDW/hr],flux 30 - 36 hps [3] [mmol/gDW/hr],other results
COc1ccc(C(=O)CC#N)cc1 [Compound C8],no inhibition at 1 mM,,,,
COC(=O)c1ccc(C(=O)CC#N)cc1 [Compound C9],insoluble,,,,
N#CCC(=O)c1ccc(Cl)cc1 [Compound C10],No inhibition at 1 mM,,,,
N#CCC(=O)c1ccccc1 [Compound C11],No inhibition at 1 mM,,,,
N#CCC(=O)c1cccc(Br)c1 [Compound C37],no inhibition at 1 mM,,,,
C=CC(=O)N1CCC(C(=O)NCc2cc(=O)n3ccccc3n2)CC1 [Compound C58],,,,,"Ki [1]: 2.11 ± 0.21 µM; IC50 ([2]; Plasmodium falciparum, 3D7, 48 h, Table 5): > 1000 µM"
N#CCC(=O)c1cc(Cl)cc(Cl)c1 [Compound C62],No inhibition at 1 mM,,,,
N#CCC(=O)c1cccc(Cl)c1Cl [Compound C64],No inhibition at 1 mM,,,,
COc1cccc(C(=O)CC#N)c1 [Compound C65],no inhibition at 1 mM,,,,
Cc1cccc(C(=O)CC#N)c1 [Compound C66],No inhibition at 1 mM,,,,"IC50 [2, 4]: > 310 µM; IC50 [2, 5]: 310 ± 57.9 µM"
N#CCC(=O)c1cncc(Br)c1 [Compound C67],,,,,"Ki [1]: 4.38 ± 1.45 µM; IC50 [2, 4]: 531 ± 61.2 µM"
N#CCC(=O)c1cccc(C(F)(F)F)c1 [Compound C69],No inhibition at 1 mM,,,,
N#CCC(=O)c1ccc(CN2CCOCC2)cc1 [Compound C77],No inhibition at 1 mM,,,,
N#CCC(=O)c1ccc(-c2ccccc2)cc1 [Compound C79],No inhibition at 1 mM,,,,
N#CCC(=O)c1cccc([N+](=O)[O-])c1 [Compound C80],No inhibition at 1 mM,,,,
N#CCC(=O)c1cc(C(F)(F)F)cc(C(F)(F)F)c1 [Compound C83],,,,,"Ki [1]: 4.66 ± 0.29 µM; IC50 [2, 4]: > 310 µM; IC50 [2, 5]: 317 ± 50.8 µM"
OC[C@H]1OC(O)[C@H](O)[C@@H](O)[C@@H]1O (stereo partly drawn) [D-Glucose],,1.3 ± 0.82,0.60 ± 0.21,3.2 ± 1.2,
NCC(=O)O [Glycine],,-0.014 ± 0.028,0.037 ± 0.17,-0.0093 ± 0.12,

SMILES,Ki—PfUCK [1],flux 6 - 18 hps [3] [mmol/gDW/hr],flux 42 - 48 hps [3] [mmol/gDW/hr],flux 30 - 36 hps [3] [mmol/gDW/hr],other results
C[C@H](N)C(=O)O [L-Alanine],,-0.023 ± 0.017,0.00 ± 0.024,-0.041 ± 0.036,
N=C(N)NCCC[C@H](N)C(=O)O [L-Arginine],,0.072 ± 0.11,0.22 ± 0.35,-0.15 ± 0.49,
NC(=O)C[C@H](N)C(=O)O [L-Asparagine],,-0.0094 ± 0.011,0.070 ± 0.17,-0.10 ± 0.12,
N[C@@H](CC(=O)O)C(=O)O [L-Aspartic acid],,0.0048 ± 0.011,0.019 ± 0.058,0.00 ± 0.029,
N[C@@H](CCC(=O)O)C(=O)O [L-Glutamic acid],,-0.019 ± 0.0081,0.0047 ± 0.077,-0.056 ± 0.024,
NC(=O)CC[C@H](N)C(=O)O [L-Glutamine],,0.00 ± 0.023,0.36 ± 0.72,-0.40 ± 0.63,
N[C@@H](Cc1c[nH]cn1)C(=O)O [L-Histidine],,-0.0073 ± 0.013,0.066 ± 0.076,-0.066 ± 0.095,
CC[C@H](C)[C@H](N)C(=O)O [L-Isoleucine],,0.017 ± 0.023,0.081 ± 0.14,-0.062 ± 0.14,
CC(C)C[C@H](N)C(=O)O [L-Leucine],,0.28 ± 0.065,0.047 ± 0.10,-0.14 ± 0.070,
NCCCC[C@H](N)C(=O)O [L-Lysine],,0.00 ± 0.064,0.073 ± 0.29,0.038 ± 0.20,
CSCC[C@H](N)C(=O)O [L-Methionine],,0.0024 ± 0.0082,0.028 ± 0.025,-0.028 ± 0.025,
N[C@@H](Cc1ccccc1)C(=O)O [L-Phenylalanine],,-0.0099 ± 0.016,0.025 ± 0.023,-0.035 ± 0.0086,
N[C@@H](CO)C(=O)O [L-Serine],,-0.019 ± 0.021,0.062 ± 0.11,-0.062 ± 0.091,
C[C@@H](O)[C@H](N)C(=O)O [L-Threonine],,-0.014 ± 0.026,0.028 ± 0.099,-0.038 ± 0.050,
N[C@@H](Cc1c[nH]c2ccccc12)C(=O)O [L-Tryptophan],,0.0026 ± 0.0045,0.010 ± 0.024,0.010 ± 0.036,
N[C@@H](Cc1ccc(O)cc1)C(=O)O [L-Tyrosine],,-0.0051 ± 0.0044,-0.046 ± 0.17,-0.031 ± 0.031,
CC(C)[C@H](N)C(=O)O [L-Valine],,-0.036 ± 0.098,0.024 ± 0.12,-0.0096 ± 0.022,
